According to patent US20250163104A1, “MACROCYCLIC IMMUNOMODULATORS” (priority 2021, published 2025):
*1 amine or outer side, *2 acyl side, *3 side chain or, on linkers, in order; H or OH if unused. Where a SMILES comes first, the peptide text is derived from it. Bridges are numbered along the chain shown (N, C = ends). [ ]: non-standard residue; d: D form. The star is where a group is joined. ξ: configuration not given here. Phe(4-CONH2) = NC(=O)c1ccc(C[C@H](N)C(=O)O)cc1; Phe(4-COOH) = N[C@@H](Cc1ccc(C(=O)O)cc1)C(=O)O; Bip = N[C@@H](Cc1ccc(-c2ccccc2)cc1)C(=O)O; Phe(3-Me) = Cc1cccc(C[C@H](N)C(=O)O)c1; Ethylenediamine = C(CN[*:2])N[*:1]; Val(3-OH) = CC(C)(O)[C@H](N)C(=O)O; 4Pal = N[C@@H](Cc1ccncc1)C(=O)O; 3Thi = N[C@@H](Cc1ccsc1)C(=O)O; Cha = N[C@@H](CC1CCCCC1)C(=O)O; Ile(3ξ) = CCC(C)[C@H](N)C(=O)O; Thr(3ξ) = CC(O)[C@H](N)C(=O)O; Carboxymethyl = O=C(O)C*; Orn = NCCC[C@H](N)C(=O)O; Dab = NCC[C@H](N)C(=O)O; Dap = NC[C@H](N)C(=O)O

Target: T1, human PD-1 / PD-L1-Ig binding on Jurkat cell line over-expressing human PD-1 (Jurkat-PD-1) (Homo sapiens, UniProt Q15116)
T1 construct: expressed in transfected cells; host or cells: Jurkat
Test: Jurkat-PD-1 Cell Binding High-Content Screening Assay (CBA)
Type: cell-based
Conditions: Jurkat-PD-1 cells, PE-labeled PD-L1-Ig 20 nM final; read-out: Jurkat HPD1_PDL1 IC50
Outline: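 Compounds were preincubated with Jurkat-hPD-1 cells in DMEM plus 10% fetal calf serum for 2 h at 37° C. Phycoerythrin-labeled PD-L1-Ig (20 nM final) was then added for 1 hour. Cells were fixed in 4% paraformaldehyde with Hoechst 33342, and bound fluorescence was quantified by high-content imaging.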

T1 sequence (Q15116 25-288): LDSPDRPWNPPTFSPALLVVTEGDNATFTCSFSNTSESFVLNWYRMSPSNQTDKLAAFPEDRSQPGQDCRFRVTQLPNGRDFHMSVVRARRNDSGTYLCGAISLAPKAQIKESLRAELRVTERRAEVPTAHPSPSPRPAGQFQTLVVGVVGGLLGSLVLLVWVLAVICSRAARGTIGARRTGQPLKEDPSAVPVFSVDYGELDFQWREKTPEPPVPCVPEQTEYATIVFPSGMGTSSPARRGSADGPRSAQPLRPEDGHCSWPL

Structure (SMILES) | IC50
Cc1cccc(C[C@@H]2NC(=O)[C@H](CC(=O)O)NC(=O)[C@H](Cc3ccc(OCC(=O)O)cc3)NC(=O)[C@H](Cc3ccncc3)NC(=O)CSC[C@@H](C(=O)N[C@H](CC(N)=O)C(N)=O)NC(=O)[C@H](CO)NC(=O)[C@H](C(C)(C)O)NC(=O)[C@H](CC3CCCCC3)NC(=O)[C@H](CCN)NC(=O)[C@@H](CC(C)C)NC(=O)[C@H](CCCN)NC(=O)[C@H](Cc3ccc(O)cc3)NC(=O)[C@H](Cc3ccc(-c4ccccc4)cc3)NC(=O)[C@H](Cc3ccc(C(N)=O)cc3)NC2=O)c1 [Compound 2657] ({CH2CO}-[4Pal]Y(Carboxymethyl)D[Phe(3-Me)][Phe(4-CONH2)][Bip]Y[Orn][dL][Dab][Cha][Val(3-OH)]SC[dN]-NH2; thioether N-14) | 8.9 nM
Cc1cccc(C[C@@H]2NC(=O)[C@H](CC(=O)O)NC(=O)[C@H](Cc3ccc(OCC(=O)O)cc3)NC(=O)[C@H](C(C)O)NC(=O)CSC[C@@H](C(=O)N[C@H](CC(N)=O)C(N)=O)NC(=O)[C@H](CO)NC(=O)[C@H](C(C)(C)O)NC(=O)[C@H](CC3CCCCC3)NC(=O)[C@H](CCN)NC(=O)[C@@H](CC(C)C)NC(=O)[C@H](CCCN)NC(=O)[C@H](Cc3ccc(O)cc3)NC(=O)[C@H](Cc3ccc(-c4ccccc4)cc3)NC(=O)[C@H](Cc3ccc(C(N)=O)cc3)NC2=O)c1 (stereo partly drawn) [Compound 2658] ({CH2CO}-[Thr(3ξ)]Y(Carboxymethyl)D[Phe(3-Me)][Phe(4-CONH2)][Bip]Y[Orn][dL][Dab][Cha][Val(3-OH)]SC[dN]-NH2; thioether N-14) | 25.9 nM
CC(C)C[C@H]1NC(=O)[C@H](CCCN)NC(=O)[C@H](C(C)C)NC(=O)[C@H](Cc2ccc(-c3ccccc3)cc2)NC(=O)[C@H](C(C)C)NC(=O)[C@H](Cc2c[nH]c3ccccc23)NC(=O)[C@H](CC(=O)O)NC(=O)[C@H](Cc2ccc(OCC(=O)O)cc2)NC(=O)[C@H](Cc2cnc[nH]2)NC(=O)CSC[C@@H](C(=O)N[C@H](C)C(N)=O)NC(=O)[C@H](C(C)O)NC(=O)[C@H](C(C)(C)O)NC(=O)[C@H](CC2CCCCC2)NC(=O)[C@H](CCN)NC1=O (stereo partly drawn) [Compound 2659] ({CH2CO}-HY(Carboxymethyl)DWV[Bip]V[Orn][dL][Dab][Cha][Val(3-OH)][Thr(3ξ)]C[dA]-NH2; thioether N-14) | 11.8 nM
Cc1cccc(C[C@@H]2NC(=O)[C@H](CC(=O)O)NC(=O)[C@H](Cc3ccc(C(=O)O)cc3)NC(=O)[C@H](Cc3ccsc3)NC(=O)CSC[C@@H](C(=O)N[C@@H](CCN)C(N)=O)NC(=O)[C@H](CO)NC(=O)[C@H](C(C)(C)O)NC(=O)[C@H](CC3CCCCC3)NC(=O)[C@H](CCN)NC(=O)[C@@H](CC(C)C)NC(=O)[C@H](CCCN)NC(=O)[C@H](Cc3ccc(C(=O)O)cc3)NC(=O)[C@H](Cc3ccc(-c4ccccc4)cc3)NC(=O)[C@H](Cc3ccc(OCC(=O)O)cc3)NC2=O)c1 [Compound 2660] ({CH2CO}-[3Thi][Phe(4-COOH)]D[Phe(3-Me)]Y(Carboxymethyl)[Bip][Phe(4-COOH)][Orn][dL][Dab][Cha][Val(3-OH)]SC[Dab]-NH2; thioether N-14) | 3.9 nM
Cc1cccc(C[C@@H]2NC(=O)[C@H](CC(=O)O)NC(=O)[C@H](Cc3ccc(C(=O)O)cc3)NC(=O)[C@H](Cc3ccncc3)NC(=O)CSC[C@@H](C(=O)N[C@@H](CCN)C(N)=O)NC(=O)[C@H](CO)NC(=O)[C@H](C(C)(C)O)NC(=O)[C@H](CC3CCCCC3)NC(=O)[C@H](CCN)NC(=O)[C@@H](CC(C)C)NC(=O)[C@H](CCCN)NC(=O)[C@H](Cc3ccc(C(=O)O)cc3)NC(=O)[C@H](Cc3ccc(-c4ccccc4)cc3)NC(=O)[C@H](Cc3ccc(OCC(=O)O)cc3)NC2=O)c1 [Compound 2661] ({CH2CO}-[4Pal][Phe(4-COOH)]D[Phe(3-Me)]Y(Carboxymethyl)[Bip][Phe(4-COOH)][Orn][dL][Dab][Cha][Val(3-OH)]SC[Dab]-NH2; thioether N-14) | 201 nM
CCC(C)[C@@H]1NC(=O)[C@H](Cc2ccc(-c3ccccc3)cc2)NC(=O)[C@H](C(C)C)NC(=O)[C@H](Cc2c[nH]c3ccccc23)NC(=O)[C@H](CC(=O)O)NC(=O)[C@H](Cc2ccc(OCC(=O)O)cc2)NC(=O)[C@H](Cc2cc[nH]c2)NC(=O)CSC[C@@H](C(=O)N[C@H](C)C(N)=O)NC(=O)[C@H](C(C)O)NC(=O)[C@H](C(C)(C)O)NC(=O)[C@H](CC2CCCCC2)NC(=O)[C@H](CCN)NC(=O)[C@@H](CC(C)C)NC(=O)[C@H](CCCN)NC1=O (stereo partly shown) [Compound 2662] | 8.3 nM
Cc1cccc(C[C@@H]2NC(=O)[C@H](CC(=O)O)NC(=O)[C@H](Cc3ccc(OCC(=O)O)cc3)NC(=O)[C@H](C(C)O)NC(=O)CSC[C@@H](C(=O)N[C@@H](CO)C(=O)NCCN)NC(=O)[C@H](C(C)O)NC(=O)[C@H](C(C)(C)O)NC(=O)[C@H](CC3CCCCC3)NC(=O)[C@H](CCN)NC(=O)[C@@H](CC(C)C)NC(=O)[C@H](CCCN)NC(=O)[C@H](Cc3ccc(O)cc3)NC(=O)[C@H](Cc3ccc(-c4ccccc4)cc3)NC(=O)[C@H](Cc3ccc(C(N)=O)cc3)NC2=O)c1 (stereo partly drawn) [Compound 2663] ({CH2CO}-[Thr(3ξ)]Y(Carboxymethyl)D[Phe(3-Me)][Phe(4-CONH2)][Bip]Y[Orn][dL][Dab][Cha][Val(3-OH)][Thr(3ξ)]CS-Ethylenediamine; thioether N-14) | 11.6 nM
Cc1cccc(C[C@@H]2NC(=O)[C@H](CC(=O)O)NC(=O)[C@H](Cc3ccc(OCC(=O)O)cc3)NC(=O)[C@H](C(C)O)NC(=O)CSC[C@@H](C(=O)N[C@@H](CN)C(=O)NCCN)NC(=O)[C@H](C(C)O)NC(=O)[C@H](C(C)(C)O)NC(=O)[C@H](CC3CCCCC3)NC(=O)[C@H](CCN)NC(=O)[C@@H](CC(C)C)NC(=O)[C@H](CCCN)NC(=O)[C@H](Cc3ccc(O)cc3)NC(=O)[C@H](Cc3ccc(-c4ccccc4)cc3)NC(=O)[C@H](Cc3ccc(C(N)=O)cc3)NC2=O)c1 (stereo partly drawn) [Compound 2664] ({CH2CO}-[Thr(3ξ)]Y(Carboxymethyl)D[Phe(3-Me)][Phe(4-CONH2)][Bip]Y[Orn][dL][Dab][Cha][Val(3-OH)][Thr(3ξ)]C[Dap]-Ethylenediamine; thioether N-14) | 15.2 nM
Cc1cccc(C[C@@H]2NC(=O)[C@H](CC(=O)O)NC(=O)[C@H](Cc3ccc(C(=O)O)cc3)NC(=O)[C@H](C(C)O)NC(=O)CSC[C@@H](C(=O)N[C@@H](CCN)C(N)=O)NC(=O)[C@H](CO)NC(=O)[C@H](C(C)(C)O)NC(=O)[C@H](CC3CCCCC3)NC(=O)[C@H](CCN)NC(=O)[C@@H](CC(C)C)NC(=O)[C@H](CCCN)NC(=O)[C@H](Cc3ccc(C(=O)O)cc3)NC(=O)[C@H](Cc3ccc(-c4ccccc4)cc3)NC(=O)[C@H](Cc3ccc(C(=O)O)cc3)NC2=O)c1 (stereo partly drawn) [Compound 2665] ({CH2CO}-[Thr(3ξ)][Phe(4-COOH)]D[Phe(3-Me)][Phe(4-COOH)][Bip][Phe(4-COOH)][Orn][dL][Dab][Cha][Val(3-OH)]SC[Dab]-NH2; thioether N-14) | 3.4 nM
CCC(C)[C@@H]1NC(=O)[C@H](Cc2ccc(-c3ccccc3)cc2)NC(=O)[C@H](Cc2ccc(C(=O)O)cc2)NC(=O)[C@H](Cc2cccc(C)c2)NC(=O)[C@H](CC(=O)O)NC(=O)[C@H](Cc2ccc(C(=O)O)cc2)NC(=O)[C@H](Cc2ccncc2)NC(=O)CSC[C@@H](C(=O)N[C@H](C)C(N)=O)NC(=O)[C@H](CCC(=O)O)NC(=O)[C@H](C(C)(C)O)NC(=O)[C@H](CC2CCCCC2)NC(=O)[C@H](CCN)NC(=O)[C@@H](CC(C)C)NC(=O)[C@H](Cc2cnc[nH]2)NC1=O (stereo partly drawn) [Compound 2666] ({CH2CO}-[4Pal][Phe(4-COOH)]D[Phe(3-Me)][Phe(4-COOH)][Bip][Ile(3ξ)]H[dL][Dab][Cha][Val(3-OH)]EC[dA]-NH2; thioether N-14) | 101 nM
